The numbers were not newly measured in US7115565B2, “Chemotherapeutic microemulsion compositions of paclitaxel with improved oral bioavailability” (Pharmacia & Upjohn Company, priority 2001, dated 2006), which cites them from elsewhere.

The conditions of the data set: reported in the background.

As to `CC(=O)O[C@H]1C(=O)[C@@]2(C)[C@H]([C@H](OC(=O)c3ccccc3)[C@]3(O)C[C@H](OC(=O)[C@H](O)[C@@H](NC(=O)c4ccccc4)c4ccccc4)C(C)=C1C3(C)C)[C@]1(OC(C)=O)CO[C@@H]1C[C@@H]2O` [Paclitaxel], the oral bioavailability result is given as “very low”.
